Experimental data: US20170240556A1, “BIFLUORODIOXALANE-AMINO-BENZIMIDAZOLE KINASE INHIBITORS FOR THE TREATMENT OF CANCER, AUTOIMMUNEINFLAMMATION AND CNS DISORDERS” (4SC DISCOVERY GMBH, priority 2012, published 2017)
pIC50: −log10 of the molar value.

What was measured:
[1] = tested on: Hedgehog signaling pathway; experiment: Hedgehog reporter assay (Gli Reporter - NIH3T3 Cell Line); type: cell-based; settings: Mus musculus; Gli reporter NIH3T3 cells, murine SHH stimulation, 24 h; read-out: HH Assay
Method: In order to investigate the potency of test compounds to inhibit the Hedgehog signaling pathway, a Gli-Reporter assay was performed.
The “Gli Reporter—NIH3T3 Cell Line” contains the firefly luciferase gene under the control of Gli responsive elements stably integrated into murine NIH3T3 cells (cells purchased from Amsbio). The luciferase expression correlates with activation of the hedgehog signaling pathway. This cell line is validated for its response to stimulation with murine Sonic Hedgehog and to treatment with inhibitors of the hedgehog signaling pathway. A multiplexed viability assay was used to discriminate inhibition on the pathway activity from cell toxicity.
Growth Medium: DMEM, 10% Calf Serum, 1% Penicillin/Streptomycin 500 μg/ml Geneticin (G418 Stock 50 mg/ml).
25.000 cells per well were seeded into a white 96 well plate in 100 μl growth medium and incubated over night at 37° C. and 5% CO2. After removing the supernatant the test compounds and controls (known GLI inhibitor, e.g. GANT-61) were added in different concentrations in a final volume of 45 μl and incubated for 1 h at 37° C. and 5% CO2. For the stimulation of the Hedgehog pathway 5 μl of 10 μg/ml concentrated murine sonic hedgehog (SHH) was added to the cells. A final concentration of 1 μg/ml mSHH and 0.1% DMSO was reached per well. After incubation for 24 h at 37° C. the cells were investigated for viability and reporter activity.
Viability: For the determination of the viability of the treated cells the CellTiter-Fluor Kit from Promega was used. Essentially, only proteases of viable cells are able to cleave the cell-permeant substrate Gly-Phe-AFCoumarin (GF-AFC). By this cleavage the fluorescent AFC is set free and can be detected in a fluorescence reader. For this assay 10 μl of GF-AFC substrate (CellTiter-Fluor, Promega #G6082) was diluted in 2 ml assay buffer from the CellTiter-Fluor Kit and 10 μl of this dilution was added per well to the cells and incubated for 30 min at 37° C. The fluorescence was measured with excitation at 380-400 nm and emission at 505 nm.
Reporter activity: The firefly luciferase reporter activity was detected with the ONE-Glo™ Luciferase Assay System from Promega. For this assay 50 μl ONE-Glo luciferase reagent (Promega #E6120, contains cell lysis buffer and luciferin) was added to each well and incubated at room temperature for 5 min. Luminescence was detected in a plate reader and served as a degree for reporter activity.

[2] = biological target: Casein kinase 1 delta (CSKN1D) (Homo sapiens, UniProt P48730); experiment: Casein kinase assay, CK1 delta; type: biochemical; settings: recombinant CSKN1D 5 nM, ATP 10 μM
Chain of Casein kinase 1 delta (CSKN1D) (P48730 whole entry): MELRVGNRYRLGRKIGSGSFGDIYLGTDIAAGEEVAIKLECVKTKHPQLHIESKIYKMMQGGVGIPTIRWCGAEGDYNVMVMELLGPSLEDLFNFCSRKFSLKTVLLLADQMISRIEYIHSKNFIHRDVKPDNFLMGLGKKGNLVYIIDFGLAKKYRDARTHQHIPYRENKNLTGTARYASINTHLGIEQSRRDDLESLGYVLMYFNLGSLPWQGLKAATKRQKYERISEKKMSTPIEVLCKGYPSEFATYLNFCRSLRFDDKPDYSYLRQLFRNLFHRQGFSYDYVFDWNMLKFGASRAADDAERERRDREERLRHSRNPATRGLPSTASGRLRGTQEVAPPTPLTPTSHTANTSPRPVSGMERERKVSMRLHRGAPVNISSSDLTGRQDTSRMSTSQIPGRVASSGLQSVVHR

[3] = tested on: Wnt/β-catenin signaling pathway; experiment: Wnt reporter assay (CellSensor LEF/TCF-bla FreeStyle 293F cells); type: cell-based; settings: Homo sapiens; LEF/TCF-bla 293F cells, LiCl and mWnt3a stimulation
Method: The Wnt reporter assay was performed in stably transfected human HEK293 cells. Wnt signaling was induced by administration of Wnt3a protein and read out by β-Lactamase mediated cleavage of CCF4-AM and subsequent fluorescent detection.
CellSensor LEF/TCF-bla FreeStyle 293F cells (invitrogen #K1677) contain a beta-lactamase reporter gene under control of the β-catenin/LEF/TCF binding elements stably integrated into FreeStyle 293F cells. This cell line can be used to detect antagonists of the Wnt/β-catenin signaling pathway when stimulated by mouse Wnt3a or LiCl. The detection of beta-lactamase is possible with LiveBLAzer FRET—B/G Loading Kit (invitrogen #K1095) with CCF4-AM as subtrate.
Culture Medium: DMEM Medium +10% dialyzed FBS (PAN 2102-P290310), +1% NEAA (PAA M11-003), +1% P/S (Penicillin/Streptomycin, PAA P11-010) +25 mM HEPES (PAA S11-001), +5 μg/ml Blasticidin (PAA P05-017).
Cells (CellSensor LEF/TCF-bla FreeStyle 293F, invitrogen K1677) were split with Culture Medium to reach a confluence at the beginning of the assay of 80-90%.
At start of the assay, cells were harvested from culture and resuspend in assay medium at density of 0,66*10̂6 cells/ml. Subsequently, 60μ1 cell suspension were pipetted in each well of a Poly-D-Lysine 96 well Plate (BD #354640, vertical rows are marked 1 through 12, horizontal lanes are marked A through H),
Plates were subsequently incubated at 37° C. for at least 2 h.
To stimulate with Wnt3a, overnight prestimulation of Wnt signalling pathway with LiCl is necessary. Subsequently, an 8M aqueous LiCl solution was diluted 1:200 in assay medium, and 30 μl of said diluted LiCl solution was plated into the appropriate wells (see below pipetting scheme). Plates were then incubated at 37° C. over night.
Subsequently, compounds and controls were prepared as follows: mWnt3a (R&D 1324-WN, dissolved in PBS+0.1% BSA to 40 μg/ml) was diluted 1:100 in assay medium (=400 ng/ml). Compounds (Cpd) were diluted to a concentration of 10 mM in DMSO to prepare dilution series in assay medium (final concentrations 30 μM, 10 μM, 3 μM, 1 μM, 0.3 μM, 0.1 μM, 0.03 μM and 0.01 μM), which were pipetted into the appropriate wells (see below pipetting scheme). For each dilution of each compound, 3 replicates were tested. Final DMSO concentration was 0.3%.
LiCl and mWnt3a stimulated cells were used as High control (HC), unstimulated cells were used as low control, a blank was prepared from cell free medium plus mWnt3a, and a functional control was prepared with a known Wnt inhibitor (e.g. PKF118-310), final concentrations were as above.
Subsequently, the well was incubated for 5 h at 37° C.
At t=23 hours, FRET reagent mix (Loading Kit with CCF4-AM, Life Technologies #K1096) was prepared; per plate: 138 μl Solution B, 13.8 μl FRET-reagent, and 2300 μl Solution C. 24 μl FRET reagent mix were plated to each well, subsequently plates were incubated for at least 2 h in the dark (it is possible to incubate over night). Subsequently, plates were measured in the BMG FluorStar® plate reader at an emission waveltengths of 460 and 520 nm and with an excitation wavelength of 405 nm.
To determine potential cytotoxicity of the compounds, plates were centrifuge and the supernatant was discarded by dumping the plates. Subsequently, 100 μl Opti-MEM and 50 μl ViaLight (Lonza #LT07-321) Lysis Buffer were added to each well, followed by incubation for 10 min at room temperature (25° C.). Subsequently, 100 μl ViaLight reagent were added to each well, followed by incubation for 2 min at room temperature (25° C.) in the dark. Optionally, 200 μl of the obtained suspension were transferred to a white 96 well plate. The luminescence was measured with a Tecan Ultra plate reader.

[4] = biological target: Casein kinase 1 epsilon (CSKN1E) (Homo sapiens, UniProt P49674); experiment: Casein kinase assay, CK1 epsilon; type: biochemical; settings: recombinant CSKN1E 30 nM, ATP 10 μM
Chain of Casein kinase 1 epsilon (CSKN1E) (P49674 whole entry): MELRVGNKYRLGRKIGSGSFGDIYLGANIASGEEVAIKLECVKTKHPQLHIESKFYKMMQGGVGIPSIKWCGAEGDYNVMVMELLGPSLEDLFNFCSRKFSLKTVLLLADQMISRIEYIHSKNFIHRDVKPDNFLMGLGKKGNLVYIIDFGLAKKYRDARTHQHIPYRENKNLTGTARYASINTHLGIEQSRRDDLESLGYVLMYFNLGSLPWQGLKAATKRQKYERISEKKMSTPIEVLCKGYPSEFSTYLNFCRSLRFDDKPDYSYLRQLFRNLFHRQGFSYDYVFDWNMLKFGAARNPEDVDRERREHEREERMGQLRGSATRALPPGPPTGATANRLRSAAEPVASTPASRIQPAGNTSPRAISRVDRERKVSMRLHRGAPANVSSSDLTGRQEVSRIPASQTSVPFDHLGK

Row | Structure (SMILES) | pIC50 [1] | pIC50 [2] | pIC50 [3] | pIC50 [4]
1 | CN(C)c1cncc(C(=O)Nc2nc3cc4c(cc3[nH]2)OC(F)(F)O4)c1 [Compound 7B, N-(2,2-difluoro-5H-[1,3]dioxolo[4′,5′:4,5]benzo[1,2-d]imidazol-6-yl)-5-(dimethylamino)nicotinamide] | 4.82 to 6.00 | > 6.70 | – | –
2 | O=C(Nc1nc2cc3c(cc2[nH]1)OC(F)(F)O3)c1cccc(N2CCCC2)c1 [Compound 122, N-(2,2-difluoro-5H-[1,3]dioxolo[4′,5′:4,5]benzo[1,2-d]imidazol-6-yl)-3-(pyrrolidin-1-yl)benzamide] | ≥ 6.30 | > 6.70 | – | –
3 | COc1cc(OC)cc(C(=O)Nc2nc3cc4c(cc3[nH]2)OC(F)(F)O4)c1 [Compound 1B, N-(2,2-difluoro-5H-[1,3]dioxolo[4′,5′:4,5]benzo[1,2-d]imidazol-6-yl)-3,5-dimethoxybenzamide] | – | > 6.70 | > 5.30 | > 6.70
4 | O=C(Nc1nc2cc3c(cc2[nH]1)OC(F)(F)O3)c1csc(-c2ccoc2)n1 [Compound 16B, N-(2,2-difluoro-5H-[1,3]dioxolo[4′,5′:4,5]benzo[1,2-d]imidazol-6-yl)-2-(furan-3-yl)thiazole-4-carboxamide] | 4.82 to 6.00 | > 6.70 | – | –
5 | Nc1nccnc1C(=O)Nc1nc2cc3c(cc2[nH]1)OC(F)(F)O3 [Compound 7, 3-amino-N-(2,2-difluoro-5H-[1,3]dioxolo[4′,5′:4,5]benzo[1,2-d]imidazol-6-yl)pyrazine-2-carboxamide] | 4.82 to 6.00 | < 6.00 | – | < 6.00
6 | O=C(Nc1nc2cc3c(cc2[nH]1)OC(F)(F)O3)c1cccc(-c2cc[nH]n2)c1 [Compound 5B, N-(2,2-difluoro-5H-[1,3]dioxolo[4′,5′:4,5]benzo[1,2-d]imidazol-6-yl)-3-(1H-pyrazol-3-yl)benzamide] | 4.82 to 6.00 | > 6.70 | – | –
7 | O=C(Nc1nc2cc3c(cc2[nH]1)OC(F)(F)O3)c1cnccn1 [Compound 27, N-(2,2-difluoro-5H-[1,3]dioxolo[4′,5′:4,5]benzo[1,2-d]imidazol-6-yl)pyrazine-2-carboxamide] | 4.82 to 6.00 | < 6.00 | – | < 6.00
8 | O=C(Nc1nc2cc3c(cc2[nH]1)OC(F)(F)O3)c1csc(-c2ccc3c(c2)CCO3)n1 [Compound 3, N-(2,2-difluoro-5H-[1,3]dioxolo[4′,5′:4,5]benzo[1,2-d]imidazol-6-yl)-2-(2,3-dihydrobenzofuran-5-yl)thiazole-4-carboxamide] | ≥ 6.30 | > 6.70 | – | 6.00 to 6.70
9 | O=C(Nc1nc2cc3c(cc2[nH]1)OC(F)(F)O3)c1cccc(-c2nccs2)c1 [Compound 2B, N-(2,2-difluoro-5H-[1,3]dioxolo[4′,5′:4,5]benzo[1,2-d]imidazol-6-yl)-3-(thiazol-2-yl)benzamide] | – | > 6.70 | > 5.30 | –
10 | O=C(Nc1nc2cc3c(cc2[nH]1)OC(F)(F)O3)c1cccc(-c2noc(C3CC3)n2)c1 [Compound 147, 3-(5-cyclopropyl-1,2,4-oxadiazol-3-yl)-N-(2,2-difluoro-5H-[1,3]dioxolo[4′,5′:4,5]benzo[1,2-d]imidazol-6-yl)-benzamide] | 6.00 to 6.30 | > 6.70 | – | > 6.70
11 | CN(C)c1cccc(C(=O)Nc2nc3cc4c(cc3[nH]2)OC(F)(F)O4)c1 [Compound 102, N-(2,2-difluoro-5H-[1,3]dioxolo[4′,5′:4,5]benzo[1,2-d]imidazol-6-yl)-3-(dimethylamino)benzamide] | 6.00 to 6.30 | > 6.70 | – | –
12 | Cc1cc(C)n(-c2cccc(C(=O)Nc3nc4cc5c(cc4[nH]3)OC(F)(F)O5)c2)n1 [Compound 130, N-(2,2-difluoro-5H-[1,3]dioxolo[4′,5′:4,5]benzo[1,2-d]imidazol-6-yl)-3-(3,5-dimethyl-1H-pyrazol-1-yl)benzamide] | ≥ 6.30 | > 6.70 | – | > 6.70
13 | O=C(Nc1nc2cc3c(cc2[nH]1)OC(F)(F)O3)c1csc(-c2cccs2)n1 [Compound 11B, N-(2,2-difluoro-5H-[1,3]dioxolo[4′,5′:4,5]benzo[1,2-d]imidazol-6-yl)-2-(thiophen-2-yl)thiazole-4-carboxamide] | 4.82 to 6.00 | > 6.70 | – | –
14 | CN(C)c1cc(C(=O)Nc2nc3cc4c(cc3[nH]2)OC(F)(F)O4)ccn1 [Compound 125, N-(2,2-difluoro-5H-[1,3]dioxolo[4′,5′:4,5]benzo[1,2-d]imidazol-6-yl)-2-(dimethylamino)isonicotinamide] | 4.82 to 6.00 | > 6.70 | – | –
15 | COc1cccc(CC(=O)Nc2nc3cc4c(cc3[nH]2)OC(F)(F)O4)c1 [Compound 3B, N-(2,2-difluoro-5H-[1,3]dioxolo[4′,5′:4,5]benzo[1,2-d]imidazol-6-yl)-2-(3-methoxyphenyl)acetamide] | 6.00 to 6.30 | > 6.70 | – | > 6.70
16 | O=C(Nc1nc2cc3c(cc2[nH]1)OC(F)(F)O3)c1csc(-c2ccco2)n1 [Compound 6B, N-(2,2-difluoro-5H-[1,3]dioxolo[4′,5′:4,5]benzo[1,2-d]imidazol-6-yl)-2-(furan-2-yl)thiazole-4-carboxamide] | 6.00 to 6.30 | > 6.70 | – | > 6.70
17 | O=C(Nc1nc2cc3c(cc2[nH]1)OC(F)(F)O3)c1cc(-c2cccs2)on1 [Compound 138, N-(2,2-difluoro-5H-[1,3]dioxolo[4′,5′:4,5]benzo[1,2-d]imidazol-6-yl)-5-(thiophen-2-yl)isoxazole-3-carboxamide] | 6.00 to 6.30 | > 6.70 | – | > 6.70
